The values that follow come from publication PMC10693969 (Parasites, Hosts and Diseases, 2023).

Data set [1] concerns A. castellanii (ATCC-30868) trophozoites. The data set is described as follows: In vitro anti-Acanthamoeba activity, A. castellanii trophozoite viability. In kind it is cell-based. The following applies: for SI, sensitivity index (CC50 C6 glial cells / IC50 A. castellanii): ratio CC50 C6 glial cells / IC50 A. castellanii; for antiamoebic activity against A. castellanii (in words): in vitro.

Data set [2] concerns A. polyphaga (ATCC-30461) trophozoites. The data set is described as follows: In vitro anti-Acanthamoeba activity, A. polyphaga trophozoite viability. In kind it is cell-based. The following applies: for SI, sensitivity index (CC50 C6 glial cells / IC50 A. polyphaga): ratio CC50 C6 glial cells / IC50 A. polyphaga; for antiamoebic activity against A. polyphaga (in words): in vitro.

The subject of data set [3] is C6 rat glial cells (ATCC CCL-107). The data set is described as follows: Cytotoxicity against C6 glial cells. In kind it is cell-based. The following applies: for CC50: read-out: C6 glial cells (CC50 ±SD), C6 rat glial cells, 0–400 μM, mean±SD of 3 independent assays.
Data set [4] relates to Naegleria fowleri trophozoites (Carter NF69 strain, ATCC 30215). The data set is described as follows: In vitro anti-N. fowleri activity, trophozoite viability. In kind it is cell-based. As to conditions: for SI, sensitivity index (CC50 C6 glial cells / IC50 N. fowleri): ratio CC50 C6 glial cells / IC50 N. fowleri; for antiamoebic activity against N. fowleri (in words): in vitro.

Data set [5] concerns murine macrophages J774A.1. As to conditions: cited from earlier work.
Data set [6] in a line: Cytotoxicity against C6 glial cells. As to conditions: rat, C6 glial cells. The data set is classed as cell-based, rat.
Data set [7] has as its system A. castellanii trophozoites. The following applies: cited from earlier work.
Setting [8] is: read-out: A. castellanii (IC50 ±SD), trophozoites, 0–400 μM, 25°C, 48 h, mean±SD of 3 independent experiments.
The mark [9] stands for this setting: read-out: A. polyphaga (IC50 ±SD), trophozoites, 0–400 μM, 25°C, 48 h, mean±SD of 3 independent experiments.
Setting [10] is: read-out: N. fowleri (IC50 ±SD), trophozoites, 0–400 μM, 37°C, 48 h, mean±SD of 3 independent experiments.
[11] abbreviates: Acanthamoeba castellanii, ATCC30868, 48 h, read-out: A. castellanii (IC50 ±SD, μM), trophozoites, 0–400 μM, 25°C, 48 h, mean±SD of 3 independent experiments.
Setting [12] is: Acanthamoeba polyphaga, ATCC30461, 48 h, read-out: A. polyphaga (IC50 ±SD, μM), trophozoites, 0–400 μM, 25°C, 48 h, mean±SD of 3 independent experiments.
[13] abbreviates: Naegleria fowleri, ATCC30215, 48 h, read-out: N. fowleri (IC50 ±SD, μM), trophozoites, 0–400 μM, 37°C, 48 h, mean±SD of 3 independent experiments.

Where two headings read alike, the source gives them in different places. Where only a bound is given, the exact number is not on record here.

The term IC50 denotes the concentration that gives 50% inhibition. The CC50 is the concentration that lowers cell viability or growth by half. With `Oc1cc(O)c2c(c1)O[C@H](c1cc(O)c(O)c(O)c1)[C@H](O)C2` [(−)-Epigallocatechin, (−)-epigallocatechin], the “SI, sensitivity index (CC50 C6 glial cells / IC50 A. castellanii)” value in data set [1] is reported as 8.68; in data set [1] (listed as (−)-epigallocatechin) it was greater than 8. The IC50 in data set [1] (setting [8]) is 32.1 ± 1.03 µM; in data set [1] (read-out: A. castellanii (IC50 ±SD), trophozoites, 0–400 μM, 25°C, 48 h, mean±SD of 3 independent experiments, listed as (−)-epigallocatechin) it was less than 50 µM; in data set [2] (setting [9]), 24.16 ± 0.16 µM; in data set [2] (read-out: A. polyphaga (IC50 ±SD), trophozoites, 0–400 μM, 25°C, 48 h, mean±SD of 3 independent experiments, listed as (−)-epigallocatechin), less than 50 µM; in data set [4] (setting [10]) it was 114.6 ± 0.48 µM. Also, the “SI, sensitivity index (CC50 C6 glial cells / IC50 A. polyphaga)” value in data set [2] is 11.55; in data set [2] (listed as (−)-epigallocatechin) it was greater than 8. In addition, the CC50 in data set [3] came to 279 ± 0.3 µM. Further, the “SI, sensitivity index (CC50 C6 glial cells / IC50 N. fowleri)” value in data set [4] turned out to be 2.44. The “antiamoebic activity against N. fowleri (in words)” value in data set [4] (trophozoites) is given as “did not show significative anti-N. fowleri activities”.
On to `O=c1cc(-c2ccc(O)cc2)oc2cc(O)cc(O)c12` [Apigenin, apigenin], for which the IC50 was less than 50 µM in data set [1] (setting [11]); 43.4 ± 0.8 µM in data set [1] (setting [8]); less than 50 µM in data set [2] (setting [12]); 28.33 ± 0.13 µM in data set [2] (setting [9]); 94.65 ± 0.58 µM in data set [4] (setting [13]). Besides, the “SI, sensitivity index (CC50 C6 glial cells / IC50 A. castellanii)” value in data set [1] was determined as 5.60. The “SI, sensitivity index (CC50 C6 glial cells / IC50 A. polyphaga)” value in data set [2] was 8.58. Moreover, the “cytotoxicity against murine macrophages J774A.1 (in words)” value in data set [5] was “potential cytotoxicity”. Half-maximal cytotoxicity in data set [6] (CC50) was put at 243.1 ± 0.98 µM. Moreover, the “cytotoxicity to C6 glial cells (in words)” value in data set [3] is “did not show significative cytotoxicity”. In addition, the “SI, sensitivity index (CC50 C6 glial cells / IC50 N. fowleri)” value in data set [4] came out at 2.57. Also, the “antiamoebic activity against N. fowleri (in words)” value in data set [4] (trophozoites) is given as “did not show significative anti-N. fowleri activities”.
On to `COc1ccc2c(c[n+](C)c3c4cc5c(cc4ccc23)OCO5)c1OC` [Chelerythrine, chelerythrine chloride], for which the IC50 was found to be 148.1 ± 1.38 µM in data set [1] (Acanthamoeba castellanii, ATCC30868, 48 h, read-out: A. castellanii (IC50 ±SD, μM)); 102 ± 1.4 µM in data set [2] (Acanthamoeba polyphaga, ATCC30461, 48 h, read-out: A. polyphaga (IC50 ±SD, μM)); 11.8 ± 1.15 µM in data set [4] (Naegleria fowleri, ATCC30215, 48 h, read-out: N. fowleri (IC50 ±SD, μM)). Besides, the “antiamoebic activity against A. castellanii (in words)” value in data set [1] (trophozoites) is “did not exhibit potential or selective antiamoebic activity”. Besides, the “antiamoebic activity against A. polyphaga (in words)” value in data set [2] (trophozoites) was “did not exhibit potential or selective antiamoebic activity”. This molecule also returned a CC50 in data set [6] of 16.4 ± 0.45 µM. Further, the “cytotoxicity to C6 glial cells (in words)” value in data set [3] is listed as “potent cytotoxicity”; in data set [3] (listed as chelerythrine), “strong toxicity”. In data set [4], the “SI, sensitivity index (CC50 C6 glial cells / IC50 N. fowleri)” value was determined as 1.39. Moreover, the “antiamoebic activity against N. fowleri (in words)” value in data set [4] (trophozoites) was “strong antiamoebic activity”.
With `COc1cc(/C=C/C(O)=C/C(=O)/C=C/c2ccc(O)cc2)ccc1O` [Demethoxycurcumin, demethoxycurcumin], the IC50 in data set [1] (setting [11]) was less than 50 µM; in data set [1] (setting [8]) it was 36.1 ± 0.82 µM; in data set [1] (read-out: A. castellanii (IC50 ±SD), trophozoites, 0–400 μM, 25°C, 48 h, mean±SD of 3 independent experiments, listed as demethoxycurcumin) it was less than 40 µM; in data set [2] (setting [9]) it was 21.93 ± 0.18 µM; in data set [2] (read-out: A. polyphaga (IC50 ±SD), trophozoites, 0–400 μM, 25°C, 48 h, mean±SD of 3 independent experiments, listed as demethoxycurcumin) it was less than 40 µM; in data set [4] (setting [13]), less than 30 µM. Besides, the IC50 in data set [4] (setting [10]) is 27.1 ± 0.35 µM; in data set [4] (read-out: N. fowleri (IC50 ±SD), trophozoites, 0–400 μM, 37°C, 48 h, mean±SD of 3 independent experiments, listed as demethoxycurcumin), less than 40 µM. The “SI, sensitivity index (CC50 C6 glial cells / IC50 A. castellanii)” value in data set [1] is greater than 8.19; in data set [1] (listed as demethoxycurcumin), greater than 8. Moreover, the “SI, sensitivity index (CC50 C6 glial cells / IC50 A. polyphaga)” value in data set [2] was greater than 13.48; in data set [2] (listed as demethoxycurcumin) it was greater than 8. Moreover, in data set [7], the “toxicity to A. castellanii trophozoites (in words)” value was “toxic”. The molecule further showed a CC50 in data set [6] greater than 296 µM. Besides, the “SI, sensitivity index (CC50 C6 glial cells / IC50 N. fowleri)” value in data set [4] is listed as greater than 7; in data set [4] (listed as demethoxycurcumin), greater than 8.
As to `Oc1ccc(/C=C/c2cc(O)cc(O)c2)cc1` [Resveratrol, resveratrol], the IC50 in data set [1] (setting [11]) is less than 50 µM; in data set [1] (setting [8]) it was 40.03 ± 0.39 µM; in data set [2] (setting [12]), less than 50 µM; in data set [2] (setting [9]) it was 31.35 ± 0.08 µM; in data set [4] (setting [13]) it was 47.19 ± 0.36 µM. In data set [1], the “SI, sensitivity index (CC50 C6 glial cells / IC50 A. castellanii)” value was found to be 5.52. Besides, the “SI, sensitivity index (CC50 C6 glial cells / IC50 A. polyphaga)” value in data set [2] came to 7.04. For the same molecule, in data set [7], the “toxicity to A. castellanii trophozoites (in words)” value is “toxic”. In addition, half-maximal cytotoxicity in data set [6] (CC50) was put at 220.78 ± 0.09 µM. Moreover, the “SI, sensitivity index (CC50 C6 glial cells / IC50 N. fowleri)” value in data set [4] was 4.68.
For (+)-pinostrobin, the IC50 in data set [1] (setting [8]), in data set [2] (setting [9]) and in data set [4] (setting [10]) was greater than 370 µM throughout. Also, the “antiamoebic activity against A. castellanii (in words)” value in data set [1] (trophozoites) is listed as “did not exhibit potential or selective antiamoebic activity”. Also, the “antiamoebic activity against A. polyphaga (in words)” value in data set [2] (trophozoites) is on record as “did not exhibit potential or selective antiamoebic activity”. Moreover, in data set [3], the CC50 was greater than 370 µM.
Take (±)-catechin hydrate: the IC50 in data set [1] (setting [8]), in data set [2] (setting [9]) and in data set [4] (setting [10]) was greater than 345 µM in each case. For the same molecule, the “antiamoebic activity against A. castellanii (in words)” value in data set [1] (trophozoites) is reported as “did not exhibit potential or selective antiamoebic activity”. In data set [2] (trophozoites), the “antiamoebic activity against A. polyphaga (in words)” value is recorded as “did not exhibit potential or selective antiamoebic activity”. For the same molecule, the CC50 in data set [3] is greater than 345 µM.
silybin (A+B) mixture: the “SI, sensitivity index (CC50 C6 glial cells / IC50 A. castellanii)” value in data set [1] was 4.08. For the same molecule, the IC50 in data set [1] (setting [8]) is 24.5 ± 0.56 µM; in data set [1] (read-out: A. castellanii (IC50 ±SD), trophozoites, 0–400 μM, 25°C, 48 h, mean±SD of 3 independent experiments, listed as silybin (A+B)), less than 50 µM; in data set [2] (setting [9]), 15.82 ± 0.06 µM; in data set [2] (read-out: A. polyphaga (IC50 ±SD), trophozoites, 0–400 μM, 25°C, 48 h, mean±SD of 3 independent experiments, listed as silybin (A+B)), less than 50 µM; in data set [4] (setting [10]), 24.2 ± 0.27 µM. Besides, in data set [2], the “SI, sensitivity index (CC50 C6 glial cells / IC50 A. polyphaga)” value turned out to be 6.31. Moreover, the CC50 in data set [3] amounted to 99.89 ± 0.78 µM. Moreover, the “SI, sensitivity index (CC50 C6 glial cells / IC50 N. fowleri)” value in data set [4] came out at 4.13.
